Measurements reported in patent US12605364B2, “Methods of treating SARS-CoV-2 infections” (priority 2020, dated 2026).
In brackets after ≈: the same amount, converted by molar mass. Several values for one entry are separate records, joined by “and”; a condition that tells them apart may be missing. Equal values may be shown once.

Tested on: SARS-CoV-2
Test: Virus neutralization (VN) assay, scoring of SARS-CoV-2 cytopathic effects (CPE) in Vero E6 cells
Assay type: cell-based

## O=C1CN(/N=C/c2ccc(-c3ccc([N+](=O)[O-])cc3)o2)C(O)=N1 [dantrolene]
  CPE observed: no CPE was observed
  Day 4 Read (CPE in wells): 3/3 wells had No CPE and 2/3 wells had >90% and 1/3 wells had >90% and 3/3 wells had >90% and 3/3 wells had sparce
  Day 6 Read (CPE in wells): 3/3 wells had No CPE and 2/3 wells had >90% and 1/3 wells had >90% and 3/3 wells had >90% and 3/3 wells had sparce
  anti-viral activity: showed anti-viral activity
  cytopathic effects (indicating virus growth): No cytopathic effects
Severe acute respiratory syndrome coronavirus 2, read-out: minimum inhibitory concentration
  MIC: 20 µM (≈ 6.29 µg/mL)
